Test [1] deals with Mycobacterium tuberculosis. Briefly: Antitubercular activity against non-replicating Mycobacterium tuberculosis H37Rv by LORA. Format: functional.
The subject of test [2] is Mycobacterium tuberculosis. Briefly: Antitubercular activity against actively growing Mycobacterium tuberculosis H37Rv by microplate alamar blue assay. Format: functional. A general note: Resazurin is reduced to fluorescent resorufin, in cell work by metabolically active cells.
In another test the test system is Vero. Briefly: Cytotoxicity against Vero cells after 3 days. Format: cell-based. The conditions noted are these: Chlorocebus sabaeus, 72 h.

pIC50: −log10 of the molar value.

In general, MIC refers to the smallest concentration in the dilution series that meets the test's criterion for growth inhibition. Low readings indicate greater potency, high ones weaker potency. With `Cc1ccc(C[N+](C)(C)C(C)CN2c3ccccc3Sc3ccccc32)cc1` (stereo unspecified), the MIC in test [1] was 34.7 µM; in test [2] it was 12.1 µM.
The like results for `CC(CN1c2ccccc2Sc2ccccc21)[N+](C)(C)Cc1ccc([N+](=O)[O-])cc1` (stereo unspecified) were, in that order, greater than 128 µM and 20.7 µM.
Broadly, the pIC50 is the negative decadic logarithm of the IC50, by convention in mol/L. Take `C[N+](C)(CCCN1c2ccccc2Sc2ccc(Cl)cc21)Cc1cccc(Cl)c1`: the MIC in test [1] came out at 6.7 µM; in test [2] it was 4.5 µM. The pIC50 in the test with Vero was less than 3.89.
For `C[N+](C)(CCCN1c2ccccc2Sc2ccc(Cl)cc21)Cc1ccccc1Cl`, in that order: 7.6 µM, 5.6 µM and less than 3.89.
The like results for `C[N+](C)(CCCN1c2ccccc2Sc2ccccc21)Cc1ccc(Cl)cc1` were, in that order, 15.4 µM, 9.31 µM and less than 4.19.
For `C[N+](C)(CCCN1c2ccccc2Sc2ccc(Cl)cc21)Cc1ccccc1`, in that order: 11.1 µM, 7.33 µM and less than 3.89.
With `C[N+](C)(CCCN1c2ccccc2Sc2ccc(Cl)cc21)Cc1ccc(Cl)cc1`, the MIC in test [1] worked out at 6.7 µM; in test [2], 6.06 µM. In the test with Vero, this compound gave a pIC50 of less than 3.89.
For `C[N+](C)(CCCN1c2ccccc2Sc2ccccc21)Cc1cccc(Cl)c1`, in that order: 13 µM, 7.5 µM and less than 3.89.
Turning to `Cc1ccc(C[N+](C)(C)CCCN2c3ccccc3Sc3ccc(C(F)(F)F)cc32)cc1`, the values for the MIC in test [1] and in test [2] were 6.9 µM and 6.8 µM, respectively. In the test on Vero, this compound showed a pIC50 of less than 3.89.
For `C[N+](C)(CCCN1c2ccccc2Sc2ccc(Cl)cc21)Cc1ccc(F)cc1`, in that order: 13.7 µM, 7.6 µM and less than 3.89.
For `C[N+](C)(CCCN1c2ccccc2Sc2ccc(C(F)(F)F)cc21)Cc1ccccc1Cl`, the minimal inhibitory concentration (MIC) in test [1] was 7.5 µM; in test [2], 7.3 µM. This compound showed a pIC50 with Vero of less than 3.89.
As to `CC(CN1c2ccccc2Sc2ccccc21)[N+](C)(C)Cc1ccccc1` (stereo unspecified), the MIC in test [1] is 99.7 µM; in test [2], 31.6 µM.
In the case of `COc1ccc(C[N+](C)(C)C(C)CN2c3ccccc3Sc3ccccc32)cc1` (stereo unspecified), the MIC is 105 µM in test [1] and 14.4 µM in test [2].
As to `C[N+](C)(CCCN1c2ccccc2Sc2ccc(C(F)(F)F)cc21)Cc1ccc(Cl)cc1`, the MIC was 6.1 µM in test [1] and 3.81 µM in test [2]. This compound showed a pIC50 with Vero of less than 3.89.
The like results for `C[N+](C)(CCCN1c2ccccc2Sc2ccc(C(F)(F)F)cc21)Cc1ccc(F)cc1` were, in that order, 10 µM, 6.4 µM and less than 3.89.
For `C[N+](C)(CCCN1c2ccccc2Sc2ccc(C(F)(F)F)cc21)Cc1cccc(Cl)c1`, in that order: 5.8 µM, 3.8 µM and less than 3.89.
`C[N+](C)(CCCN1c2ccccc2Sc2ccccc21)Cc1ccccc1Cl`: the MIC in test [1] was 24.6 µM; in test [2], 14.3 µM.
For `COc1ccc(C[N+](C)(C)CCCN2c3ccccc3Sc3ccc(Cl)cc32)cc1`, the MIC was determined as 11.9 µM in test [1] and 8.5 µM in test [2]. Further, the pIC50 in the test with Vero is less than 3.89.
For `Cc1ccc(C[N+](C)(C)CCCN2c3ccccc3Sc3ccc(Cl)cc32)cc1`, in that order: 7.5 µM, 4.7 µM and less than 3.89.
In the case of `C=CC[N+](C)(C)CCCN1c2ccccc2Sc2ccc(Cl)cc21`, the MIC in test [1] stood at 106 µM; in test [2], 30.6 µM.
The like results for `C[N+](C)(CCCN1c2ccccc2Sc2ccccc21)Cc1ccc(F)cc1` were, in that order, 32.9 µM and 14.6 µM.
The like results for `C[N+](C)(CCCN1c2ccccc2Sc2ccc(Cl)cc21)Cc1ccc([N+](=O)[O-])cc1` were, in that order, 27.5 µM and 12.3 µM.
For the compound `Cc1ccc(C[N+](C)(C)CCCN2c3ccccc3Sc3ccccc32)cc1`, the MIC in test [1] was determined as 15 µM; in test [2], 9.9 µM. The pIC50 with Vero was less than 3.89.

These data come from ChEMBL document CHEMBL1139075, “Synthesis and antitubercular activity of quaternized promazine and promethazine derivatives” (Bioorg Med Chem Lett, 2007).
